{"source": "patent US6302119A", "about": "“Low odor permanent waving compositions containing a disulfide” (priority 1999, dated 2001)", "key": {"[1]": {"details": "cited from earlier work; for odor: permanent wave; for waving performance: compared to TGA where stated"}, "[2]": {"details": "thiol; cited from earlier work"}, "[3]": {"details": "in vivo; cited from earlier work"}, "[4]": {"experiment": "Odor evaluation by 3-4 panelists of activator, waving composition and hair tresses", "details": "for Odor rating of waving composition (with activator): GMT alone 3.6; for Odor rating of activator (GMT + additive): GMT alone 3.8; for odor effect: additive in GMT, concentration not specified; for Odor of hair rating: GMT alone 2.8", "experimental": "The disulfide or thiol additive was added in the concentration indicated in Tables 3 and 4, to 200 g of neat glyceryl monothioglycolate (GMr) in a 250 mL beaker.\nOdor evaluation was conducted by 3-4 panelists who rated the odors on a scale of 1-5 where 1=no malodor and 5=extreme malodor. […] To this solution was added two tresses of dark brown, virgin hair (1 inch wide, 6 inches long), that had been washed with a 10% solution of SLS and soaked in synthetic sweate^8 at 37° C. for 17 hr, then lightly rinsed. The beaker containing the GMT activator was covered with foil and was allowed to sit for 5 to 10 minutes prior to odor evaluation. The tresses were then allowed to process in the wave composition for 20 minutes at room temperature in a covered beaker. The tresses were rinsed with tap water, towel blotted, then added to 80 mL of Matrix Opticurl Rebonding Neutralizer and processed for 5 minutes. After rinsing, the damp hair was evaluated for odor.\n8. Recipe for synthetic sweat: 10 g sodium chloride, 1 g potassium hydrogen phosphate, 0.25 g histidine, lactic acid to adjust pH to 3.2 and water to make 1 L."}, "[5]": {"details": "gas chromatography; waving compositions; cited from earlier work"}, "[6]": {"details": "0.005 wt % in GMT, scale 1-5, 1 = no malodor"}, "[7]": {"details": "0.005 wt % in GMT, scale 1 = no malodor, 5 = extreme malodor, average of 3-4 panelists"}, "[8]": {"details": "0.01 wt % in GMT, scale 1-5, 1 = no malodor"}, "[9]": {"details": "0.005 wt % in GMT, scale 1-5, 1 = no malodor, damp hair after neutralizer"}, "[10]": {"details": "0.1 wt % in GMT, scale 1-5, 1 = no malodor"}}, "note": "Entries after “also recorded” stand apart in the source; their conditions may differ.", "data": [{"smiles": "O=C(CS)OCC(O)CO", "note": "(centres unmarked) [GMT, Glyceryl monothioglycolate]", "values": [{"measurement": "odor", "setting": "[1]", "result": "more pronounced from GMT (glyceryl monothioglycolate) acid waves, than from ATG (ammonium thioglycolate) alkaline waves"}, {"measurement": "pKa", "setting": "[2]", "result": 7.8}, {"measurement": "skin irritation", "setting": "[3]", "result": "causes skin irritation in some people"}]}, {"smiles": "CCCCCCCSSCCCCCCC", "note": "[di-n-heptyldisulfide, di-n-heptyl disulfide]", "values": [{"measurement": "Odor rating of waving composition (with activator)", "setting": "[4]; [6]", "result": 5}, {"measurement": "Odor rating of activator (GMT + additive)", "setting": "[4]; [7]", "result": 5}, {"measurement": "Odor rating of waving composition (with activator)", "setting": "[4]; [8]", "result": 5}, {"measurement": "Odor rating of activator (GMT + additive)", "setting": "[4]; [8]", "result": 5}, {"measurement": "odor effect", "setting": "[4]", "result": "increased malodor compared to non-disulfide containing formulations"}, {"measurement": "odor effect", "setting": "[4]; listed as diheptyldisulfide", "result": "produces an odor itself that is more disagreeable than the GMT odor alone"}]}, {"smiles": "O=C(O)CS", "note": "[ammonium thioglycolate]", "values": [{"measurement": "hydrogen sulfide in headspace", "setting": "[5]", "result": "ppm levels"}]}, {"smiles": "CCCCOC(=O)CSSCC(=O)OCCCC", "note": "[di-n-butyldithiodiglycolate]", "values": [{"measurement": "Odor rating of waving composition (with activator)", "setting": "[4]; [6]", "result": 2.0}, {"measurement": "Odor of hair rating", "setting": "[4]; [9]", "result": 3.5}, {"measurement": "Odor rating of activator (GMT + additive)", "setting": "[4]; [7]", "result": 2.0}, {"measurement": "Odor of hair rating", "setting": "[4]; [8]", "result": 4}, {"measurement": "Odor rating of waving composition (with activator)", "setting": "[4]; [8]", "result": 3.8}, {"measurement": "Odor rating of activator (GMT + additive)", "setting": "[4]; [8]", "result": 2.8}, {"measurement": "odor effect", "setting": "[4]; listed as Di-butyldithiodiglycolate", "result": "effectively lowers odor in the activator and in the waving composition"}, {"measurement": "odor effect", "setting": "[4]; listed as dibutyldithioglycolate", "result": "less of an odor reducing effect compared to di-i-octyldithiodiglycolate"}, {"measurement": "post-perm odor on hair", "setting": "[4]; vs original GMT odor", "result": "leave a sulfur malodor on the hair that is more disagreeable than the original GMT odor"}]}, {"smiles": "CC(S)C(=O)O", "note": "(centres unmarked) [Thiolactic acid]", "values": [{"measurement": "waving performance", "setting": "[1]", "result": "less efficient than TGA"}, {"measurement": "toxicology / mildness", "setting": "[3]", "result": "milder on the epidermis"}]}, {"smiles": "CC(C)CCCCCOC(=O)CSSCC(=O)OCCCCCC(C)C", "note": "[di-i-octyldithiodiglycolate]", "values": [{"measurement": "odor reduction", "setting": "[4]; 0.005%", "result": "removed the sulfur odor from GMT without adding the petroleum odor of the disulfide; also recorded: better than those were from the i-octylthioglycolate; also recorded: the waving composition and the hair smell more neutral, and less chemical than the other solutions; also recorded: essentially no odor left on the hair"}, {"measurement": "panelist preference vs GMT alone, formulation odor and post-perm hair odor", "setting": "[4]; 0.005% in GMT, duplicate experiments", "result": "all panelists preferred the GMT containing 0.005% disulfide compared to GMT alone"}, {"measurement": "Odor rating of waving composition (with activator)", "setting": "[4]; [6]", "result": 2.1}, {"measurement": "Odor of hair rating", "setting": "[4]; [9]", "result": 1.1}, {"measurement": "Odor rating of activator (GMT + additive)", "setting": "[4]; [7]", "result": 2.2}, {"measurement": "odor reduction / odor detected", "setting": "[4]; 0.01%", "result": "comparable odor results; also recorded: petroleum-like sulfur smell of the disulfide itself"}, {"measurement": "Odor of hair rating", "setting": "[4]; [8]", "result": 1.8}, {"measurement": "Odor rating of waving composition (with activator)", "setting": "[4]; [8]", "result": 3.0}, {"measurement": "Odor rating of activator (GMT + additive)", "setting": "[4]; [8]", "result": 2.5}, {"measurement": "Odor of hair rating", "setting": "[4]; [10]", "result": 2.8}, {"measurement": "Odor rating of waving composition (with activator)", "setting": "[4]; [10]", "result": 2.3}, {"measurement": "Odor rating of activator (GMT + additive)", "setting": "[4]; [10]", "result": 2.5}, {"measurement": "odor effect", "setting": "[4]", "result": "reduces the thiol odor associated with a GMT wave in all three categories evaluated"}]}, {"smiles": "N[C@@H](CS)C(=O)O", "note": "[cysteine]", "values": [{"measurement": "waving performance", "setting": "[1]", "result": "produces weaker curls than TGA"}, {"measurement": "skin irritation", "setting": "[3]", "result": "is an irritant"}]}, {"smiles": "O=C(O)CS", "note": "[thioglycolic acid]", "values": [{"measurement": "waving performance", "setting": "[1]", "result": "good performance"}, {"measurement": "odor", "setting": "[1]", "result": "unpleasant odor"}, {"measurement": "toxicology / mildness", "setting": "[3]", "result": "good toxicology"}]}, {"smiles": "NCCS", "note": "[Cysteamine]", "values": [{"measurement": "odor", "setting": "[1]", "result": "likened to burnt popcorn or corn chips"}, {"measurement": "pKa", "setting": "[2]", "result": 8.6}]}]}
